Experimental data as given in US8217022B2, “Analogues of 1,3-bis(4-nitrophenyl)triazenes, their pharmaceutically acceptable salts and N-acyl derivatives for tumour treatment” (Rudjer Boskovic Institute, priority 2009, dated 2012).
Where two headings read alike, the source gives them in different places.

Tests used:
[1] = tested on: mammalian cells; conditions: from publication, read-out: cytotoxicity IC50; cited from earlier work
[2] = tested on: human cervical carcinoma HeLa cells; test: Cytotoxicity by spectrophotometric MTT method on HeLa cells; type: cell-based; conditions: for IC50: MTT
Method: (§1) The human cervical carcinoma HeLa cells were used as a model for testing the cytotoxicity of new compounds. Said cells grow as single-layer culture in nutrient Dulbecco's modified Eagle's medium (DMEM, Gibco Life Technologies, Grand Island, USA) with 10% of fetal bovine serum (Gibco) and antibiotics (penicillin 100 U, streptomicine 0.1 mg, Sigma Chem. Co., St. Louis, USA). They were grown in thermostat at 37° C. with 5% CO2 in a humidified atmosphere in plastic cell culture flasks (BD Falcon, Germany).
The compounds were dissolved in dimethyl sulfoxide (Merck, Darmstadt, Germany) in concentrations of 20-120 mM (depending on the compound) and stored in aliquots at −20° C. as stock solutions. The stock solutions were diluted to the appropriate concentrations just before the experiments.
(§2) The cytotoxicity of new compounds was determined by spectrophotometric MTT method (Michisch et al., Urol Res 18(990)131). It is a colorimetric method based on the ability of living cells to reduce the yellow tetrazolium salt 3-(4,5-dimethylthiazol-2-yl)-2,5-diphenyltetrazolium bromide) (MTT; Merck) to violet formazane crystals using mitochondrial dehydrogenase and cytochrome b and c. The crystals were dissolved in dimethyl sulfoxide (DMSO), followed by spectrophotometric measurement of their absorbance at 545 nm.
(§3) Cells were seeded in 96-well microtitration plates (BD Falcon) (2.5×10^3/180 μl), and incubated overnight at temperature of 37° C. to allow the cells to attach to the growth medium. Next day the compounds were added to the growth medium in a wide range of concentrations, from 0.05 to 100 μM (each concentration in quadruplicate). After 72 hours, the samples were coloured with the MTT dye and left for 3 hours in the thermostat. Formed crystals were dissolved in dimethyl sulfoxide and the absorbance of each sample was measured at 545 nm. The survival of cells was calculated according to the formula: […]
The experiments were repeated 2-3 times. […] IC50 values were read from the curve. IC50 is the concentration of a compound that reduces the survival of treated cells to 50%.
The cytotoxicity of the new compounds was determined on human cervical carcinoma HeLa cells by the spectrophotometric MTT method. It is expressed as IC50 value, i.e. as the concentration of a compound that reduces cell survival to 50%.

[3] = tested on: human embryonic kidney HEK 293 cells; test: Cytotoxicity by MTT method on HEK 293 cells; type: cell-based; conditions: HEK 293, MTT; Table 2
[4] = tested on: CA3 cells resistant to cisplatin and cross-resistant to vincristine, methotrexate and mitomycin C; test: Cytotoxicity by MTT method on CA3 resistant sub-line; type: cell-based; conditions: Table 3
[5] = tested on: laryngeal carcinoma HEp-2 cells; test: Cytotoxicity by MTT method on HEp-2 cells; type: cell-based
[6] = tested on: glioblastoma A1235 cells; test: Cytotoxicity by MTT method on A1235 cells; type: cell-based; conditions: Table 2
[7] = tested on: human ovarian adenocarcinoma OVCAR cells; test: Cytotoxicity by MTT method on OVCAR cells; type: cell-based; conditions: Table 2
[8] = tested on: rhabdomiosarcoma RD cells; test: Cytotoxicity by MTT method on RD cells; type: cell-based; conditions: Table 2
[9] = tested on: HeLa CK cells resistant to cisplatin and cross-resistant to vincristine and methotrexate; test: Cytotoxicity by MTT method on HeLa CK resistant sub-line; type: cell-based, human; conditions: Table 3
Method: as §2
as §3, with “After 72 hours, the samples were coloured with the MTT dye and left for 3 hours in the thermostat.” left out
(§4) The experiments were repeated 2-3 times. […] IC50 values were read from the curve. […]
It was tested on parental cervical carcinoma HeLa cells and their sub-line HeLa CK cells resistant to cisplatin and cross-resistant to vincristine and methotrexate (Osmak and Eljuga, Res Exp Med 193(1993) 389). […] Cytotoxicity was determined by spectrophotometric MTT method and expressed as IC50.

[10] = tested on: normal human cells, keratinocytes; test: Cytotoxicity on keratinocytes, survival by crystal violet dye; type: cell-based; conditions: Table 2
Method: as §1
The compounds were dissolved in dimethyl sulfoxide (Merck, Darmstadt, Germany) in concentrations of 20-120 mM (depending on the compound) and stored in aliquots at −20° C. as stock solutions. […]
Cells were seeded in 96-well microtitration plates (BD Falcon) (2.5×10^3/180 μl), and incubated overnight at temperature of 37° C. to allow the cells to attach to the growth medium. […] Formed crystals were dissolved in dimethyl sulfoxide and the absorbance of each sample was measured at 545 nm. The survival of cells was calculated according to the formula: […]
as §4
The cytotoxicity was determined by spectrophotometric MTT method (except for keratinocytes, which have low metabolic activity, so their survival was determined by addition of crystal violet dye) and expressed as IC50.

[11] = HeLa cells, 72 hours, Table 1, read-out: Cytotoxicity (IC50 μM)

N=C(N)c1ccc(N=NNc2ccc(C(=N)N)cc2)cc1 [berenil, Berenil]
IC50 [1]: > 100 µM

O=[N+]([O-])c1ccc(N=NNc2ccc([N+](=O)[O-])cc2Cl)c(Cl)c1 [VM-102]
IC50 [2, 11]: 2.6 µM

O=[N+]([O-])c1ccc(N=NNc2ccc([N+](=O)[O-])cc2)cc1 [1,3-bis(4-nitrophenyl)triazene]
biological activity ([2]; tested during the testing of the compounds of the invention): did not show any biological activity

O=[N+]([O-])c1ccc(N=NNc2ccc([N+](=O)[O-])cc2Br)c(Br)c1 [VM-94c]
IC50 [3]: 7.9 µM
IC50 [4]: 7.2 µM
IC50 ([5]; HEp2 parental cells, MTT, Table 3): 5.5 µM
IC50 ([5]; HEp-2, MTT, Table 2): 5.5 µM
IC50 [6]: 5.45 µM
IC50 [7]: 3.4 µM
IC50 [8]: 5.1 µM
IC50 ([2]; HeLa cells, 72 hours, Table 1, listed as VM 94c, read-out: Cytotoxicity (IC50 μM)): 3.65 µM
IC50 ([2]; HeLa parental cells, Table 3, read-out: IC50): 3.4 µM
IC50 ([2]; HeLa, Table 2, read-out: IC50): 3.65 µM
IC50 [9]: 3.9 µM
IC50 [10]: 9.45 µM

O=[N+]([O-])c1ccc(N=NNc2ccc([N+](=O)[O-])cc2Br)c(Br)c1 [VM-97]
IC50 [2, 11]: 0.45 µM
